Key:
[1] = target: MRGPRX2 (Homo sapiens, UniProt Q96LB1, F170A); test: BRET2 Gq activation, MRGPRX2 pocket mutants, HEK293T cells; format: cell-based
Description: (§1) Bioluminescence resonance energy transfer assay 2 (BRET2). To measure the receptor mediated G protein activation, HEK293T cells were plating either in six-well dishes containing 350-400 k cells per well, or 10-cm dishes at approximately 2 million per dish 20-24 h prior to transfection. The cells were then transfected with a 1:1:1:1 ratio of the receptor:GurLuc8:Gβ:GγGFP DNA. Transit 2020 (Mirus biosciences) was used to complex the DNA at a ratio of 3 μL Transit/μg DNA, in OptiMEM (GIBCO) at a concentration of 10 ng DNA per μL OptiMEM. After 24 h, the cells were plated in poly-L-lysine coated 96-well white clear bottom cell culture plates in plating media (DMEM+1% dialyzed FBS) at a density of 40-50,000 cells in 200 μl per well and incubated overnight. The next day, the media was carefully aspirated and cells were washed once with 60 μl of drug buffer (1×HBSS, 20 mM HEPES, 0.1% (w/v) BSA, pH 7.4), then 60 μl drug buffer containing coelenterazine 400a (nanolight technology) at 5 μM final concentration was added to each well and incubate for 5 min. Cells were then treated with 30 μl of 3× designated drug for an additional 5 minutes. After drug incubation, plates were read in an LB940 Mithras plate reader (Berthold Technologies) with a 395 nm (RLuc8-coelenterazine 400a) and 510 nm (GFP2) emission filters, at 1 s integration times. Each plate was read four times, and measurements from the fourth read were used in all analyses. BRET ratio was computed as the ratio of the GFP2 emission to rLuc8 emission. Data were normalized to % WT stimulation with indicated reference agonist and analyzed using nonlinear regression “log(agonist) vs. response” in GraphPad Prism 9.0. Log(agonist) vs normalized response—variable slope was used for (R)-ZINC-3573 pocket mutations (D184 Å, E164 Å, W243 Å, F244 Å, L247 Å, and W248 Å).

[2] = target: MRGPRX2 (Homo sapiens, UniProt Q96LB1, W243A); test: as above; format: cell-based
Description: as §1

[3] = test system: MRGPRX2; test: as above; format: cell-based, human
Description: as §1

[4] = target: T1, MRGPRX4 (Homo sapiens (Human), UniProt Q96LA9); test: MRGPRX4 agonist activity (FLIPR Ca2+ assay, concentration-response); format: cell-based
Description: FLIPR Ca2+ assay. Tetracycline inducible MRGPRX2 or MRGPRX4 stable cells [Flp-In™ T-REx™-293 cell which is derived from HEK 293 cells (ATCC, CRL 1573)] were maintained in DMEM containing 10% (v/v) FBS, 100 units ml^−1 penicillin G, 100 μg ml^−1 streptomycin, 100 μg ml^−1 hygromycin B, and 15 μg ml^−1 blasticidin ^16. NK1 stably expressing cell were maintained in DMEM containing 10% (v/v) FBS, 100 units ml^−1 penicillin G and 100 μg ml^−1 streptomycin. On the day of assay, cells were plated into Poly-L-Lysine (PLL) coated 384-well black clear bottom cell culture plates with DMEM buffer, which is composed of 1% (v/v) dialyzed FBS, 100 units ml^−1 penicillin G, 100 μg ml^−1 streptomycin with 1 μg ml^−1 tetracycline at density of 20,000 cells in 40 μl per well for overnight. For NK1 stable cells, the same media used for MRGPRX2 or MRGPRX4 cells except the tetracycline were used. […] Once loaded in FLIPR (Molecular Devices), basal fluorescence was measured for 10 s, then 10 μl of test compounds were added followed by continued fluorescence measurement for an additional 120 s. […] Data were normalized to % reference compound stimulation and analyzed using nonlinear regression “log(agonist) vs. response” in GraphPad Prism 9.0.

[5] = target: Kir6.2/SUR1 potassium channel (Homo sapiens (Human), UniProt Q09428+Q14654); test: Electrophysiology of Kir6.2/SUR1 in HEK293 cells; format: cell-based; details: compared to nateglinide
Description: Electrophysiology. HEK293 cells were cultured in DMEM with 4.5 g L-^1 glucose, L-glutamine, and sodium pyruvate (Mediatech) containing 10% (v/v) FBS (Axenia BioLogix) and 1% (v/v) penicillin-streptomycin, at 37° C. and with 5% CO2. Cells were lifted with trypsin-EDTA (Life Technologies) and passaged to 6-well plates (Warner Instruments) 3-4 d before recording. Transient transfection was performed with Lipofectamine 2000 (Thermo Fisher Scientific) 2 days before recording. The plasmids of human Kir6.2 and SUR1 were the gift from Dr. Show-Ling Shyng (Oregon Health and Science University), and we fused mCherry fluorescent protein to the C-terminus of Kir6.2. The vector ratio for co-transfection of Kir6.2 to SUR1 was 1:10. Before recording, cells were lifted with trypsin-EDTA, kept in modified Tyrode's saline (140 mM NaCl, 5 mM KCl, 10 mM HEPES, 2 mM CaCl2), 1 mM MgCl2, 10 mM glucose, pH 7.2 ˜ 7.3 with HCl), and were used within 8 hours. For recording, an aliquot of cells was transferred to a recording chamber on a Nikon-TE2000 Inverted Scope (Nikon Instruments), and transfection was confirmed with fluorescent microscopy. The pipette solution contained: 145 mM KCl, 1 mM MgCl2, 5 mM EGTA, 2 mM CaCl2), 20 mM HEPES, 0.3 mM K2-ATP and 0.3 mM K2-ADP. Patch borosilicate pipettes (Sutter Instrument) were pulled from a Sutter P-97 puller with resistances of 2-3 MΩ. […]

[6] = test system: 320 GPCRs; test: PRESTO-Tango GPCRome screening; format: cell-based; details: 3 μM
Description: GPCRome Screening. Screening of compounds against the PRESTO-Tango GPCRome was accomplished using previously described methods with several modifications (63). First, HTLA cells were plated in white 384-well clear bottom plates (Greiner) in DMEM (Sigma) with 1% (v/v) dialyzed FBS and 10 U per mL penicillin-streptomycin (Gibco). After 24 h, the cells were transfected using PEI (Sigma) with an in-plate adapted method (64). Briefly, 17 ng per well PRESTO-Tango GPCR DNAs were resuspended in OptiMEM (Gibco) and hybridized with PEI prior to dilution and distribution into 384-well plates and subsequent addition to cells. After overnight incubation, MS47134 at 5× final concentration (3 μM) diluted in DMEM with 1% (v/v) dialyzed FBS were added to cells without replacement of the medium for 18-20 h. On the day of assay, medium and drug solution were dumped and loaded with 20 ul per well of Bright-Glo reagent (Promega). Plates were incubated for 20 min in the dark and the luminescence was counted for cells using SpectraMax Luminescence reader. Dopamine receptor D2 serves as an assay control with 0.1 mM Quinpirole. Data were analyzed using GraphPad Prism 9.0.

[7] = target: MRGPRX4 (Homo sapiens, UniProt Q96LA9, L83S); test: Mutagenesis of MRGPRX4, agonist-stimulated Gq activation; format: cell-based
Description: as §1

[8] = target: MRGPRX4 (Homo sapiens, UniProt Q96LA9, Y130A); test: as above; format: cell-based
Description: as §1

[9] = target: T1, MRGPRX4; details: previously identified (ref. 17); cited from earlier work

T1 sequence (Q96LA9 whole entry): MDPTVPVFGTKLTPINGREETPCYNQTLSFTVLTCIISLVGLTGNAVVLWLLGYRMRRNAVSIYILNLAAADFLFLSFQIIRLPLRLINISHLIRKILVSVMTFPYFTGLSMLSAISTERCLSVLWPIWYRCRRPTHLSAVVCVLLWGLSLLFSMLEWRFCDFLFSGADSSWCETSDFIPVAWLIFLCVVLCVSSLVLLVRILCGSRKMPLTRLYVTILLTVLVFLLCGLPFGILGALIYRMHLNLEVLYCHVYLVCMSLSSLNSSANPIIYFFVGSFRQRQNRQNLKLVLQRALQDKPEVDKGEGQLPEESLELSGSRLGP
Chain of Kir6.2/SUR1 potassium channel (Q09428 whole entry, the tested form may be a part): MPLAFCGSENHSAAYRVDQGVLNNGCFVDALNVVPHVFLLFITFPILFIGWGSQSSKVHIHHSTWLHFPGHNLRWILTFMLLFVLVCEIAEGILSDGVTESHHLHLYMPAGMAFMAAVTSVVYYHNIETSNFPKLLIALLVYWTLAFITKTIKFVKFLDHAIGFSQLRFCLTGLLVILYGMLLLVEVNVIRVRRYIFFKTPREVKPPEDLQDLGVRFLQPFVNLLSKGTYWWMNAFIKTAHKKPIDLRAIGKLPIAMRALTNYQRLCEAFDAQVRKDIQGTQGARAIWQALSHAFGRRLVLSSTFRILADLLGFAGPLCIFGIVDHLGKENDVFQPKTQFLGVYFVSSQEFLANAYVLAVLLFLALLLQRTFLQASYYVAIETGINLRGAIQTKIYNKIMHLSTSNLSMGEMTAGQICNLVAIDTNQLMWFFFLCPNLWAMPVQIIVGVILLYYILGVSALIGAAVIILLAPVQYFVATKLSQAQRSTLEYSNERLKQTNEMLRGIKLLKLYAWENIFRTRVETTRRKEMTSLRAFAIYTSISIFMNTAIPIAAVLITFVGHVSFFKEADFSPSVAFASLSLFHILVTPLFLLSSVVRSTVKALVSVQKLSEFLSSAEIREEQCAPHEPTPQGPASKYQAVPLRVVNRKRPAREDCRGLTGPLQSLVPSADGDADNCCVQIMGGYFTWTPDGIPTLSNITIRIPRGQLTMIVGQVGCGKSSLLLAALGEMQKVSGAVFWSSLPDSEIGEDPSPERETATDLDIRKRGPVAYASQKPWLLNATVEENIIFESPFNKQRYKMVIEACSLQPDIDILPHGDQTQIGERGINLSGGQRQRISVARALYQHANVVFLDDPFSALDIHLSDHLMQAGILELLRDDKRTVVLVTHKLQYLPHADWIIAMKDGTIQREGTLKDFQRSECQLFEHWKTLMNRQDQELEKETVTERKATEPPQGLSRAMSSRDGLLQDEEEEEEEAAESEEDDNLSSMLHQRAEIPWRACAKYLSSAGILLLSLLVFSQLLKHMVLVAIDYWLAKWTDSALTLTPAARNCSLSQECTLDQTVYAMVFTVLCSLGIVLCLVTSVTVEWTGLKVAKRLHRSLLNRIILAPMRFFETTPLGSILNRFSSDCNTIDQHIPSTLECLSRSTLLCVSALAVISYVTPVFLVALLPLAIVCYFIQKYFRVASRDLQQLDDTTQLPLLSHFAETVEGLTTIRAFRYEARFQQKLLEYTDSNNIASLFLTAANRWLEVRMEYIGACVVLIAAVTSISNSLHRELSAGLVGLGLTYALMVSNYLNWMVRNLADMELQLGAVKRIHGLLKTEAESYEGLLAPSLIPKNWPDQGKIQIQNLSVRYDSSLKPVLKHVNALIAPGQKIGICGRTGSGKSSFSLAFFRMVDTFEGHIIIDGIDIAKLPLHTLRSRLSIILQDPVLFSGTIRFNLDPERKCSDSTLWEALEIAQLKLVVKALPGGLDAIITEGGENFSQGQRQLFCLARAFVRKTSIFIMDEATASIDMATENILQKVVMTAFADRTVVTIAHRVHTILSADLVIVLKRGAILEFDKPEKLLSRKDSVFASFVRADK
Chain of Kir6.2/SUR1 potassium channel (Q14654 whole entry, the tested form may be a part): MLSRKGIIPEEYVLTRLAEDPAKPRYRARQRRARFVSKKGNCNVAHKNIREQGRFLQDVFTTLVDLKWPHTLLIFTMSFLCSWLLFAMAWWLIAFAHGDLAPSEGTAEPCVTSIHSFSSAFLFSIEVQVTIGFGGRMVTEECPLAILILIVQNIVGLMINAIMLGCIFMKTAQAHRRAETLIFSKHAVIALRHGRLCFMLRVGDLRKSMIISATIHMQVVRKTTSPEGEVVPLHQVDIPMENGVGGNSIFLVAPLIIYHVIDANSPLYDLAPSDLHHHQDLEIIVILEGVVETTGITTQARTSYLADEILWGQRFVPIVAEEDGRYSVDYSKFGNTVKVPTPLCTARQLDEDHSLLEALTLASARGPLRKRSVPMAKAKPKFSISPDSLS

## cortistatin-14
[1]
  reduction of potency by F170(ECL2)A mutation: 7 fold
[2]
  effect of W243(6.55)A substitution on activity: completely reduced the activity

## CN(C)[C@@H]1CCN(c2cc(-c3ccccc3)nc3ccnn23)C1 [(R)-ZINC-3573]
[3]
  effect of substitution of D184(5.38) and E164(4.60) on efficacy: impaired the efficacy

## C[C@]12CC3CC(C(=O)N[C@H](Cc4ccccc4)C(=O)O)(C1)C[C@@](C)(C3)C2 [MS47134]
[4]
  EC50: 0.15 µM
[5]
  improved selectivity for MRGPRX4 over the Kir6.2/SUR1 potassium channel: 47 fold
[6]
  off-target profiling at 320 GPCRs: activity only at MRGPRX4 and MRGPRX1
[7]
  effect of L83S mutation on potency: greatly attenuated the potency
[8]
  effect of Y130(ICL2)A mutation on potency of Gq activation: reduced the potency

## CC(C)[C@H]1CC[C@H](C(=O)N[C@H](Cc2ccccc2)C(=O)O)CC1 [nateglinide, reference compound]
[7]
  effect of L83S mutation on potency: greatly attenuated the potency
[9]
  agonist potency at MRGPRX4: low micromolar agonist

Source: patent publication US20240366606A1, “MRGPRX2 ANTAGONISTS AND USES THEREOF” (The Regents of the University of California, priority 2021, published 2024)
